Drawing on ChEMBL document CHEMBL4346665, “Synthesis and evaluation of tetrahydroquinolin-2(1H)-one derivatives as novel anti-pancreatic cancer agents via targeting autophagy” (Eur J Med Chem, 2019), this text covers inhibition and IC50 for 53 compounds.

Holding throughout (conditions): PANC-1, 24 h
Assay [1] deals with PANC-1. The assay is described as follows: Growth inhibition of human PANC1 cells in nutrient-deprived medium at 10 uM incubated for 24 hrs by MTT assay (reference value: 0.0 +/- 1.9%). Type of assay: functional. In general terms: Formazan colour is commonly taken as a measure of viable cells.
Assay [2] has as its system PANC-1. Nature of the assay: Growth inhibition of human PANC1 cells in nutrient-rich medium at 10 uM incubated for 24 hrs by MTT assay (reference value: 0.0 +/- 3.8%). The format is functional.
The test system of assay [3] is PANC-1. Nature of the assay: Growth inhibition of human PANC1 cells in nutrient-deprived medium incubated for 24 hrs by MTT assay. The format is functional, cell-based.

The structures appear in SMILES notation.

With `CC(C)=CCC1Cc2c(OCCCNS(=O)(=O)c3ccc([N+](=O)[O-])cc3)cc(=O)n(CCCO)c2CC1(C)C` (centres undefined), the inhibition at 10 µM was determined as 47.7% in the assay on PANC-1 [1] and 17.3% with PANC-1 [2].
The corresponding values for `CC(C)=CCC1Cc2c(OC(=O)Nc3cccc(C(F)(F)F)c3)cc(=O)n(CCCO)c2CC1(C)C` (centres undefined) are 54.3% and 0%.
With `COc1ccc(NC(=O)Oc2cc(=O)n(CCCO)c3c2CC(C/C=C(\C)CCC=C(C)C)C(C)(C)C3)cc1` (centres undefined), the inhibition at 10 µM in the assay on PANC-1 [1] amounted to 64.1%; in the assay with PANC-1 [2], 0%. The same compound yielded a half-maximal inhibitory concentration (IC50) in the assay with PANC-1 [3] of 7.1 µM.
With `COc1ccc(OCCCOc2cc(=O)n(CCCO)c3c2CC(C/C=C(\C)CCC=C(C)C)C(C)(C)C3)cc1` (centres undefined), the inhibition at 10 µM with PANC-1 [1] amounted to 20%; in the assay on PANC-1 [2], 0%.
`CC(C)=CCC/C(C)=C/CC1Cc2c(OCCCOc3ccc([N+](=O)[O-])cc3)cc(=O)n(CCCO)c2CC1(C)C` (centres undefined): the inhibition at 10 µM worked out at 65.1% with PANC-1 [1] and 9.8% with PANC-1 [2]. Besides, inhibition in the assay with PANC-1 [3] was half-maximal at 6.3 µM (IC50).
The corresponding values for `CC(C)=CCC1Cc2c(OC(=O)Nc3ccc(F)cc3)cc(=O)n(CCCO)c2CC1(C)C` (centres undefined) are 71.2%, 0% and 7.7 µM.
On to `CC(C)=CCC1Cc2c(OC(=O)Nc3cccc(F)c3)cc(=O)n(CCCO)c2CC1(C)C` (centres undefined), for which the inhibition at 10 µM with PANC-1 [1] was found to be 66.1%; with PANC-1 [2], 0%.
On to `CC(C)=CCC/C(C)=C/CC1Cc2c(OCCCNC(=O)c3ccco3)cc(=O)n(CCCO)c2CC1(C)C` (centres undefined), for which the inhibition at 10 µM in the assay on PANC-1 [1] was determined as 69.5%; in the assay with PANC-1 [2] it was 2.8%. The compound further returned a 50% inhibitory concentration (IC50) with PANC-1 [3] of 5.2 µM.
As for `CC(C)=CCC/C(C)=C/CC1Cc2c(OCCCNS(=O)(=O)c3ccc(Cl)cc3)cc(=O)n(CCCO)c2CC1(C)C` (centres undefined), the inhibition at 10 µM in the assay with PANC-1 [1] is 14.5%; in the assay with PANC-1 [2], 16.1%.
The corresponding values for `CC(C)=CCC/C(C)=C/CC1Cc2c(OC(=O)Nc3ccc(F)c(Cl)c3)cc(=O)n(CCCO)c2CC1(C)C` (centres undefined) are 25% and 0%.
Consider `CCOc1cc(=O)n(CCCO)c2c1CC(CC=C(C)C)C(C)(C)C2` (centres undefined), for which the values for the inhibition at 10 µM in the assay with PANC-1 [1] and in the assay with PANC-1 [2] were 66.5% and 16.6%, respectively. In the assay on PANC-1 [3], this compound yielded a half-maximal inhibitory concentration (IC50) of 7.3 µM.
For the compound `CC(C)=CCC/C(C)=C/CC1Cc2c(OCCCNS(=O)(=O)c3ccc(C(F)(F)F)cc3)cc(=O)n(CCCO)c2CC1(C)C` (centres undefined), the figures for the inhibition at 10 µM with PANC-1 [1] and in the assay on PANC-1 [2] were 26.4% and 0%, respectively.
As to `CC(C)=CCC1Cc2c(OC(=O)Nc3ccc(F)c(F)c3)cc(=O)n(CCCO)c2CC1(C)C` (centres undefined), the figures for the inhibition at 10 µM in the assay with PANC-1 [1] and with PANC-1 [2] were 76.7% and 0%, respectively. The IC50 in the assay with PANC-1 [3] came out at 7.3 µM.
Regarding `CC(C)=CCC/C(C)=C/CC1Cc2c(OC(=O)Nc3ccc(F)cc3F)cc(=O)n(CCCO)c2CC1(C)C` (centres undefined), the inhibition at 10 µM in the assay with PANC-1 [1] is 33.7%; in the assay on PANC-1 [2], 15.6%.
With `CCOc1cc(=O)n(CCCO)c2c1CC(C/C=C(\C)CCC=C(C)C)C(C)(C)C2` (centres undefined), the inhibition at 10 µM with PANC-1 [1] amounted to 67.8%; in the assay on PANC-1 [2], 0.8%. Besides, in the assay with PANC-1 [3], it took 5.8 µM to reach half-maximal inhibition (IC50).
Regarding `CC(C)=CCC1Cc2c(OCCCNS(=O)(=O)c3ccc(Br)cc3)cc(=O)n(CCCO)c2CC1(C)C` (centres undefined), the inhibition at 10 µM is 19.5% in the assay with PANC-1 [1] and 3.7% with PANC-1 [2].
The corresponding values for `CC(C)=CCC/C(C)=C/COc1cc(=O)n(CCCO)c2c1CC(C/C=C(\C)CCC=C(C)C)C(C)(C)C2` (centres undefined) are 15.8% and 3.1%.
For `CC(C)=CCC1Cc2c(OCCCNC(=O)c3ccco3)cc(=O)n(CCCO)c2CC1(C)C` (centres undefined), the inhibition at 10 µM in the assay on PANC-1 [1] is 2.1%; in the assay with PANC-1 [2], 4.3%.
The corresponding values for `COc1cccc(NC(=O)Oc2cc(=O)n(CCCO)c3c2CC(CC=C(C)C)C(C)(C)C3)c1` (centres undefined) are 16.2% and 0%.
The corresponding values for `COc1ccc(C(=O)NCCCOc2cc(=O)n(CCCO)c3c2CC(CC=C(C)C)C(C)(C)C3)cc1` (centres undefined) are 55.5% and 2.5%.
The corresponding values for `COc1ccc(NC(=O)Oc2cc(=O)n(CCCO)c3c2CC(CC=C(C)C)C(C)(C)C3)cc1` (centres undefined) are 3.7% and 0%.
Consider `CC(C)=CCC1Cc2c(OC(=O)Nc3ccc(F)cc3F)cc(=O)n(CCCO)c2CC1(C)C` (centres undefined), for which the inhibition at 10 µM in the assay with PANC-1 [1] is 69.7%; in the assay with PANC-1 [2], 0%.
The corresponding values for `CC(C)=CCC/C(C)=C/CC1Cc2c(OC(=O)Nc3ccc(F)c(F)c3)cc(=O)n(CCCO)c2CC1(C)C` (centres undefined) are 43.7% and 4.8%.
Consider `CC(C)=CCC/C(C)=C/CC1Cc2c(OC(=O)Nc3ccc(F)cc3)cc(=O)n(CCCO)c2CC1(C)C` (centres undefined), for which the inhibition at 10 µM in the assay with PANC-1 [1] came to 43.9%; in the assay on PANC-1 [2], 6.2%.
The corresponding values for `CC(C)=CCC/C(C)=C/COc1cc(=O)n(CCCO)c2c1CC(CC=C(C)C)C(C)(C)C2` (centres undefined) are 10.6% and 18.4%.
The corresponding values for `CC(C)=CCC1Cc2c(OCCCNS(=O)(=O)c3ccc(C(F)(F)F)cc3)cc(=O)n(CCCO)c2CC1(C)C` (centres undefined) are 29.6% and 0%.
In the case of `CC(C)=CCC/C(C)=C/CC1Cc2c(OCCCOc3ccc(Cl)cc3)cc(=O)n(CCCO)c2CC1(C)C` (centres undefined), the inhibition at 10 µM in the assay on PANC-1 [1] turned out to be 25.2%; with PANC-1 [2], 0%.
The corresponding values for `CC(C)=CCC/C(C)=C/CC1Cc2c(OCc3ccccc3)cc(=O)n(CCCO)c2CC1(C)C` (centres undefined) are 46.5% and 1.5%.
`CC(C)=CCC/C(C)=C/CC1Cc2c(OCCCNS(=O)(=O)c3ccc([N+](=O)[O-])cc3)cc(=O)n(CCCO)c2CC1(C)C` (centres undefined): the figures for the inhibition at 10 µM in the assay with PANC-1 [1] and in the assay with PANC-1 [2] were 7.4% and 0%, respectively.
The corresponding values for `CC(C)=CCC/C(C)=C/CC1Cc2c(OC(=O)Nc3cccc(F)c3)cc(=O)n(CCCO)c2CC1(C)C` (centres undefined) are 52.3% and 0%.
Take `COc1ccccc1NC(=O)Oc1cc(=O)n(CCCO)c2c1CC(CC=C(C)C)C(C)(C)C2` (centres undefined): the values for the inhibition at 10 µM with PANC-1 [1] and in the assay on PANC-1 [2] were 71.1% and 0%, respectively. This compound came in with an IC50 with PANC-1 [3] of 7.7 µM.
Take `CC(C)=CCC1Cc2c(OC(=O)Nc3ccccc3F)cc(=O)n(CCCO)c2CC1(C)C` (centres undefined): the inhibition at 10 µM in the assay with PANC-1 [1] worked out at 52.3%; in the assay on PANC-1 [2], 0%.
Turning to `CC(C)=CCC1Cc2c(OCCCNC(=O)c3cccs3)cc(=O)n(CCCO)c2CC1(C)C` (centres undefined), the results for the inhibition at 10 µM with PANC-1 [1] and with PANC-1 [2] were 33.6% and 5.6%, respectively.
The corresponding values for `CC(C)=CCC1Cc2c(OC(=O)Nc3ccc(Cl)cc3)cc(=O)n(CCCO)c2CC1(C)C` (centres undefined) are 49.8% and 0%.
For the compound `CC(C)=CCC1Cc2c(OCCCOc3ccc([N+](=O)[O-])cc3)cc(=O)n(CCCO)c2CC1(C)C` (centres undefined), the inhibition at 10 µM was determined as 47.5% in the assay with PANC-1 [1] and 0% in the assay with PANC-1 [2].
The corresponding values for `COc1ccc(C(=O)NCCCOc2cc(=O)n(CCCO)c3c2CC(C/C=C(\C)CCC=C(C)C)C(C)(C)C3)cc1` (centres undefined) are 45.7% and 14.1%.
The corresponding values for `CC(C)=CCC/C(C)=C/CC1Cc2c(OC(=O)Nc3ccc(Cl)c(Cl)c3)cc(=O)n(CCCO)c2CC1(C)C` (centres undefined) are 20% and 0%.
Regarding `CC(C)=CCC/C(C)=C/CC1Cc2c(OCC=C(C)C)cc(=O)n(CCCO)c2CC1(C)C` (centres undefined), the inhibition at 10 µM came to 30.3% in the assay on PANC-1 [1] and 15.9% in the assay with PANC-1 [2].
With `CC(C)=CCOc1cc(=O)n(CCCO)c2c1CC(CC=C(C)C)C(C)(C)C2` (centres undefined), the inhibition at 10 µM with PANC-1 [1] amounted to 20.7%; with PANC-1 [2], 7.5%.
The corresponding values for `CC(C)=CCC1Cc2c(OCCCNS(=O)(=O)c3ccc(Cl)cc3)cc(=O)n(CCCO)c2CC1(C)C` (centres undefined) are 24.7% and 9.8%.
The corresponding values for `CC(C)=CCC1Cc2c(OC(=O)Nc3ccc(Cl)c(Cl)c3)cc(=O)n(CCCO)c2CC1(C)C` (centres undefined) are 61.4% and 1.8%.
The corresponding values for `COc1ccc(OCCCOc2cc(=O)n(CCCO)c3c2CC(CC=C(C)C)C(C)(C)C3)cc1` (centres undefined) are 47.7% and 4.1%.
`CC(C)=CCC/C(C)=C/CC1Cc2c(OC(=O)Nc3ccc(Cl)cc3)cc(=O)n(CCCO)c2CC1(C)C` (centres undefined): the inhibition at 10 µM in the assay with PANC-1 [1] was 47.2%; in the assay on PANC-1 [2], 4.3%.
For the compound `COc1cccc(NC(=O)Oc2cc(=O)n(CCCO)c3c2CC(C/C=C(\C)CCC=C(C)C)C(C)(C)C3)c1` (centres undefined), the inhibition at 10 µM in the assay with PANC-1 [1] worked out at 47%; in the assay on PANC-1 [2], 11.3%.
The corresponding values for `CC(C)=CCC1Cc2c(O)cc(=O)n(CCCO)c2CC1(C)C` (centres undefined) are 25.6% and 0%.
The corresponding values for `CC(C)=CCC1Cc2c(OCc3ccccc3)cc(=O)n(CCCO)c2CC1(C)C` (centres undefined) are -0.3% and 11.1%.
As for `CC(C)=CCC1Cc2c(OCCCOc3ccc(Cl)cc3)cc(=O)n(CCCO)c2CC1(C)C` (centres undefined), the values for the inhibition at 10 µM in the assay with PANC-1 [1] and with PANC-1 [2] were 22.7% and 0%, respectively.
Take `CC(C)=CCC/C(C)=C/CC1Cc2c(OC(=O)Nc3cccc(C(F)(F)F)c3)cc(=O)n(CCCO)c2CC1(C)C` (centres undefined): the inhibition at 10 µM in the assay with PANC-1 [1] worked out at 44%; in the assay on PANC-1 [2], 6.7%.
The corresponding values for `CC(C)=CCC/C(C)=C/CC1Cc2c(OCCCNS(=O)(=O)c3ccc(Br)cc3)cc(=O)n(CCCO)c2CC1(C)C` (centres undefined) are 15.2% and 0%.
The corresponding values for `CC(C)=CCC/C(C)=C/CC1Cc2c(O)cc(=O)n(CCCO)c2CC1(C)C` (centres undefined) are 28.7% and 0%.
The corresponding values for `CC(C)=CCC/C(C)=C/CC1Cc2c(OCCCNC(=O)c3ccc([N+](=O)[O-])cc3)cc(=O)n(CCCO)c2CC1(C)C` (centres undefined) are 16.8% and 6.5%.
On to `COc1ccccc1NC(=O)Oc1cc(=O)n(CCCO)c2c1CC(C/C=C(\C)CCC=C(C)C)C(C)(C)C2` (centres undefined), for which the inhibition at 10 µM in the assay on PANC-1 [1] is 53%; in the assay on PANC-1 [2], 0%.
The corresponding values for `CC(C)=CCC1Cc2c(OCCCNC(=O)c3ccc([N+](=O)[O-])cc3)cc(=O)n(CCCO)c2CC1(C)C` (centres undefined) are 49.9% and 9.1%.

A word on the inhibition: it is the drop in the measured response relative to a control, in per cent. As a reminder, the IC50 is the point on the concentration scale where inhibition reaches its midpoint. Read a low IC50 as greater potency in that assay.
